Measured values taken from patent publication US4155909A, “2-Alkyl nicotinoids and processes for their production” (priority 1977, dated 1979).
Values joined by “and” are separate entries in the source; they are usually repeats but may differ in a detail not shown here. Equal values may be shown once.

What was measured:
[1] = tested on: Aphids; test: Aphid spray test on replicate ivy cuttings infested with Aphids; format: in vivo; conditions: for Avg. % Dead / % Dead / Insecticidal Effectiveness: aphids; for Avg. % Dead: average of 3 replicates; for Avg. % Dead / % Dead / No. of Aphids Alive / No. of Aphids Dead: 5 ml sprayed, 18 hours; for % Dead / No. of Aphids Alive / No. of Aphids Dead: per replicate (1, 2, 3); for Insecticidal Effectiveness: as compared to nicotine (100%); for No. of Aphids Alive / No. of Aphids Dead: 100 mg in 10 ml ethanol + 40 ml water with surfactant
Description: A 100 mg sample of the candidate compound was dissolved in 10 ml absolute ethanol. To the solution was added 40 ml tap water containing 0.5 ml of 1% surfactant. A 5 ml sample of each solution was sprayed on to replicate ivy cuttings infested with Aphids. The results, tabulated below in Table I were recorded 18 hours following the application of the sprays. […]
(§1) In the first column, the LD50 of the compounds in mice is a measure of their mammalian toxicity. The second column illustrates the effectiveness of the candidate compounds as insecticides as compared to nicotine, whereas the third column is the ratio of insecticidal effectiveness to mammalian toxicity.

[2] = Mammalian toxicity, LD50 in mice; format: in vivo, mouse; conditions: in vivo; mouse; measure of mammalian toxicity
Excerpt: as §1

[3] = tested on: female house flies; test: Topical application to the notum of female house flies; format: in vivo; conditions: for insecticidal effectiveness in words: common houseflies, compared with nicotine; for Avg. % Dead / Percent Dead, Run 1 / Percent Dead, Run 2: house flies, 50 mg in 0.4 ml ethanol, 0.3 μl applied, 24 hours; for Avg. % Dead: average of Run 1 and Run 2
Description: A 50 mg sample of the candidate compound was dissolved on 0.4 ml absolute ethanol. A 0.3 μl sample of the solution was applied to the notum of female house flies which has been anesthetized with ether. Results were read twenty-four hours later.

[4] = tested on: mammals; conditions: Haglid et al., compared with nicotine; cited from earlier work
[5] = tested on: mouse; test: Mammalian toxicity, LD50 in mice; format: in vivo; conditions: compared with nicotine
Excerpt: as §1

Row | Compound | Avg. % Dead [1] [%] | % Dead ([1]; 1080 min) | Insecticidal Effectiveness [1] [%] | No. of Aphids Alive [1] | No. of Aphids Dead [1] | LD50 [2] [mg/kg] | insecticidal effectiveness in words [3] | Avg. % Dead [3] [%] | Percent Dead, Run 1 [3] [%] | Percent Dead, Run 2 [3] [%] | % Dead [1] [%] | nicotinic / pharmacological activity in words [4] | mammalian toxicity in words [5]
1 | Cc1ncccc1C1CCCN1 (centres unmarked) [2-methylnornicotine, 2-Methyl-3-(2-pyrrolidinyl)pyridine] | 3 | 2% and 7% and 0% | 3 | 39 and 27 and 30 | 2 and 0 | 100 | only slightly less effective | 70 | 80 | 60 |  |  | 
2 | Cc1ncccc1C1CCCCN1 (centres unmarked) [2-methylanabasine, 2-Methyl-3-(2-piperidinyl)pyridine] | 52 | 62% and 50% and 43% | 52 | 24 and 27 and 87 | 39 and 27 and 66 | 15.7 |  |  |  |  |  |  | 
3 | CN1CCC[C@H]1c1cccnc1 [l-nicotine, reference compound] | 100 |  |  | 0 | 45 and 27 and 39 | 0.26 |  | 100 | 100 | 100 | 100 |  | 
4 | Cc1ccc(C2CCCN2C)c(C)n1 (centres unmarked) [2,6-dimethylnicotine, 2,6-Dimethyl-3-(1-methyl-2-pyrrolidinyl)pyridine] | 6 | 0% and 13% and 4% | 6 | 32 and 20 and 87 | 0 and 3 and 66 | 41 |  |  |  |  |  |  | 
5 | Cc1ccc(C2CCCN2C)cn1 (centres unmarked) [6-methylnicotine] |  |  |  |  |  |  |  |  |  |  |  | identical in pharmacological activity to nicotine itself | 
6 | Cc1ccncc1C1CCCN1C (centres unmarked) [4-methylnicotine] |  |  |  |  |  |  |  |  |  |  |  | little or no nicotinic activity | 
7 | Cc1ncccc1C1CCCN1C (centres unmarked) [2-methylnicotine, 2-Methyl-3-(1-methyl-2-pyrrolidinyl)pyridine] | 6 | 4% and 5% and 8% |  | 54 and 38 and 55 | 2 and 5 |  | as effective an insecticide as nicotine itself | 100 | 100 | 100 |  |  | lower mammalian toxicity than nicotine
